Assay results published in PubChem BioAssay AID328 (DTP/NCI, 2004).
Values joined by “and” are separate entries in the source; they are usually repeats but may differ in a detail not shown here. Equal values may be shown once. Toxic doses and inconclusive results are not listed.

System: BDF1 mice, P388 leukemia ip, median survival T/C
Assay: NCI In Vivo Anticancer Drug Screen. Data for tumor model P388 Leukemia (intraperitoneal) in B6D2F1 (BDF1) mice
Conditions: endpoint: median survival time, higher = longer survival
Procedure, shortened: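 Reported as T/C, where T is the survival measurement in dosed animals and C the same measurement in vehicle controls.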

[1] = dose: 50.0 mg/kg/injection, schedule: Q01DX009 (ip), vehicle: saline with Tween-80
[2] = dose: 100.0 mg/kg/injection, schedule: Q01DX009 (ip), vehicle: saline with Tween-80
[3] = dose: 25.0 mg/kg/injection, schedule: Q01DX009 (ip), vehicle: Klucel (hydroxypropylcellulose) (HPC)
[4] = dose: 50.0 mg/kg/injection, schedule: Q01DX009 (ip), vehicle: Klucel (hydroxypropylcellulose) (HPC)
[5] = dose: 100.0 mg/kg/injection, schedule: Q01DX009 (ip), vehicle: Klucel (hydroxypropylcellulose) (HPC)
[6] = dose: 200.0 mg/kg/injection, schedule: Q01DX009 (ip), vehicle: saline with Tween-80
[7] = dose: 50.0 mg/kg/injection, schedule: Q04DX003 (ip), vehicle: saline
[8] = dose: 100.0 mg/kg/injection, schedule: Q04DX003 (ip), vehicle: saline
[9] = dose: 25.0 mg/kg/injection, schedule: Q01DX009 (ip), vehicle: saline
[10] = dose: 50.0 mg/kg/injection, schedule: Q01DX009 (ip), vehicle: saline
[11] = dose: 50.0 mg/kg/injection, schedule: Q04DX003 (ip), vehicle: Klucel (hydroxypropylcellulose) (HPC)
[12] = dose: 100.0 mg/kg/injection, schedule: Q04DX003 (ip), vehicle: Klucel (hydroxypropylcellulose) (HPC)
[13] = dose: 200.0 mg/kg/injection, schedule: Q04DX003 (ip), vehicle: Klucel (hydroxypropylcellulose) (HPC)
[14] = dose: 12.5 mg/kg/injection, schedule: Q01DX009 (ip), vehicle: saline with Tween-80

In the case of `CCOC(=O)NC1CC2(C=CN1C(=O)OCC)CCCCC2` (centres undefined), the T/C (dose: 37.5 mg/kg/injection, schedule: Q04DX003 (ip), vehicle: Klucel (hydroxypropylcellulose) (HPC)) is reported as 113 % of control, the T/C (dose: 75.0 mg/kg/injection, schedule: Q04DX003 (ip), vehicle: Klucel (hydroxypropylcellulose) (HPC)) is reported as 118 % of control and the T/C (dose: 150.0 mg/kg/injection, schedule: Q04DX003 (ip), vehicle: Klucel (hydroxypropylcellulose) (HPC)) is reported as 112 % of control.

`Nc1cc(Nc2cccc(Cl)c2)nc(N)n1` was tested, and the T/C [1] was 86 % of control.

With `O=C(O)c1ccc([N+](=O)[O-])s1` the T/C [1] was 90 % of control, the T/C [2] was 95 % of control and the T/C (dose: 100.0 mg/kg/injection, schedule: Q04DX003 (ip), vehicle: saline with Tween-80) was 110 % of control. For the same compound, the T/C (dose: 200.0 mg/kg/injection, schedule: Q04DX003 (ip), vehicle: saline with Tween-80) was 100 % of control.

For `CCOC(=O)CCN(CCN(C)C)c1cc(O)c2c(c1O)C(=O)c1ccccc1C2=O`, the T/C (dose: 50.0 mg/kg/injection, schedule: Q01DX005 (ip), vehicle: saline with Tween-80) was 123 % of control.

For `O=Cc1c2ccc(Cl)cc2nc2cc(Cl)ccc12`, the T/C (dose: 200.0 mg/kg/injection, schedule: Q01DX001 (ip), vehicle: saline with Tween-80) was 91 % of control.

In the case of `O=c1oc2c3ccccc3c3ccccc3c2o1`, the T/C [3] is reported as 117 % of control, the T/C [4] is reported as 115 % of control and the T/C [5] is reported as 114 % of control.

In the case of `CCOc1ccc(/C=N/Nc2ccc([N+](=O)[O-])cc2)cc1OC`, the T/C [2] is reported as 100 % of control, the T/C [6] is reported as 115 % of control and the T/C (dose: 400.0 mg/kg/injection, schedule: Q01DX009 (ip), vehicle: saline with Tween-80) is reported as 115 % of control.

With `COC(C(=O)C(O)C(C)O)C1CC2C=C3C=C(OC4CC(OC5CC(O)C(OC)C(C)O5)C(OC(C)=O)C(C)O4)C(C)C(=O)C3=C(O)C2=C(O)C1OC1CC(OC2CC(OC3CC(C)(O)C(OC(=O)C(C)C)C(C)O3)C(O)C(C)O2)C(O)C(C)O1` (centres undefined) the T/C (dose: 0.12 mg/kg/injection, schedule: Q01DX001 (ip), vehicle: other) was 150 % of control, the T/C (dose: 0.25 mg/kg/injection, schedule: Q01DX001 (ip), vehicle: other) was 204 % of control and the T/C (dose: 12.5 micrograms/kg/injection, schedule: Q01DX009 (ip), vehicle: saline) was 111 % of control. For the same compound, the T/C (dose: 25.0 micrograms/kg/injection, schedule: Q01DX009 (ip), vehicle: saline) was 111 % of control, the T/C (dose: 31.2 micrograms/kg/injection, schedule: Q01DX001 (ip), vehicle: saline) was 165 % of control and the T/C (dose: 31.2 micrograms/kg/injection, schedule: Q04DX003 (ip), vehicle: saline) was 190 % of control. The T/C (dose: 31.2 micrograms/kg/injection, schedule: Q08DX002 (ip), vehicle: saline) was 190 % of control, the T/C (dose: 50.0 micrograms/kg/injection, schedule: Q01DX009 (ip), vehicle: saline) was 111 % of control and the T/C (dose: 62.5 micrograms/kg/injection, schedule: Q01DX001 (ip), vehicle: saline) was 150 % of control and 195 % of control. For the same compound, the T/C (dose: 62.5 micrograms/kg/injection, schedule: Q08DX002 (ip), vehicle: saline) was 210 % of control, the T/C (dose: 100.0 micrograms/kg/injection, schedule: Q01DX009 (ip), vehicle: saline) was 111 % of control and the T/C (dose: 125.0 micrograms/kg/injection, schedule: Q01DX001 (ip), vehicle: saline) was 230 % of control. The T/C (dose: 125.0 micrograms/kg/injection, schedule: Q08DX002 (ip), vehicle: saline) was 185 % of control, the T/C (dose: 250.0 micrograms/kg/injection, schedule: Q01DX001 (ip), vehicle: saline) was 240 % of control and 150 % of control and the T/C (dose: 500.0 micrograms/kg/injection, schedule: Q01DX001 (ip), vehicle: saline) was 108 % of control. The T/C (dose: 500.0 micrograms/kg/injection, schedule: Q08DX002 (ip), vehicle: saline) was 100 % of control.

In the case of `COC(=O)CCC(=O)/C=C1/Nc2ccccc2C1=O`, the T/C [7] is reported as 90 % of control, the T/C [8] is reported as 110 % of control and the T/C (dose: 200.0 mg/kg/injection, schedule: Q04DX003 (ip), vehicle: saline) is reported as 120 % of control.

With `O=C(O)C(/C=N\Nc1ccccc1)=N\Nc1ccccc1` the T/C (dose: 37.5 mg/kg/injection, schedule: Q01DX009 (ip), vehicle: saline with Tween-80) was 110 % of control, the T/C (dose: 75.0 mg/kg/injection, schedule: Q01DX009 (ip), vehicle: saline with Tween-80) was 115 % of control and the T/C (dose: 150.0 mg/kg/injection, schedule: Q01DX009 (ip), vehicle: saline with Tween-80) was 118 % of control.

`O=[N+]([O-])c1cccc2c([N+](=O)[O-])cccc12` was tested, and the T/C (dose: 100.0 mg/kg/injection, schedule: Q01DX001 (ip), vehicle: saline sonified) was 95 % of control, the T/C (dose: 200.0 mg/kg/injection, schedule: Q01DX001 (ip), vehicle: saline sonified) was 100 % of control and the T/C (dose: 400.0 mg/kg/injection, schedule: Q01DX001 (ip), vehicle: saline sonified) was 115 % of control.

`CCCCCOC(CN)C(Cl)(Cl)Cl` (centres undefined) was tested, and the T/C [9] was 115 % of control, the T/C (dose: 33.0 mg/kg/injection, schedule: Q01DX009 (ip), vehicle: saline) was 100 % of control and 118 % of control and the T/C [10] was 113 % of control and 122 % of control. The T/C (dose: 75.0 mg/kg/injection, schedule: Q01DX009 (ip), vehicle: saline) was 109 % of control.

With `Cc1noc(C)c1CC1(Cc2c(C)noc2C)C(=O)CCC2(C)CCCC=C21` (centres undefined) the T/C [11] was 91 % of control, the T/C [5] was 104 % of control and the T/C [12] was 104 % of control. The T/C (dose: 200.0 mg/kg/injection, schedule: Q01DX009 (ip), vehicle: Klucel (hydroxypropylcellulose) (HPC)) was 95 % of control and the T/C [13] was 91 % of control.

In the case of `CCCC(C(=O)OCCN(CC)CC)(c1ccccc1)c1ccccc1`, the T/C (dose: 54.0 mg/kg/injection, schedule: Q01DX001 (ip), vehicle: saline) is reported as 105 % of control, the T/C (dose: 90.0 mg/kg/injection, schedule: Q01DX001 (ip), vehicle: saline) is reported as 104 % of control and the T/C (dose: 150.0 mg/kg/injection, schedule: Q01DX001 (ip), vehicle: saline) is reported as 105 % of control.

In the case of `CC(=O)O.CC(=O)O.[Co+2].[NH-]C(CCC(N)=O)C(=O)O.[NH-]C(CCC(N)=O)C(=O)O` (centres undefined), the T/C [14] is reported as 87 % of control, the T/C (dose: 25.0 mg/kg/injection, schedule: Q01DX009 (ip), vehicle: saline with Tween-80) is reported as 93 % of control and the T/C [1] is reported as 98 % of control.

In the case of `Nc1cc(NC(=O)c2ccc(Cl)cc2)ccc1S(=O)(=O)O`, the T/C (dose: 3.12 mg/kg/injection, schedule: Q01DX009 (ip), vehicle: saline) is reported as 117 % of control, the T/C (dose: 6.25 mg/kg/injection, schedule: Q01DX009 (ip), vehicle: saline) is reported as 99 % of control and the T/C (dose: 6.25 mg/kg/injection, schedule: Q04DX003 (ip), vehicle: Klucel (hydroxypropylcellulose) (HPC)) is reported as 95 % of control. The T/C (dose: 12.5 mg/kg/injection, schedule: Q01DX009 (ip), vehicle: saline) was 90 % of control, the T/C (dose: 12.5 mg/kg/injection, schedule: Q04DX003 (ip), vehicle: Klucel (hydroxypropylcellulose) (HPC)) was 106 % of control and the T/C [9] was 87 % of control. The T/C (dose: 25.0 mg/kg/injection, schedule: Q04DX003 (ip), vehicle: Klucel (hydroxypropylcellulose) (HPC)) was 93 % of control, the T/C [11] was 98 % of control and the T/C [12] was 97 % of control.

For `C[C@]12CCC(=O)C=C1CC[C@H]1[C@@H]3CC[C@](O)(C(=O)CO)[C@@]3(C)C[C@H](O)[C@@]12F`, the T/C (dose: 12.5 mg/kg/injection, schedule: Q01DX009 (ip), vehicle: Klucel (hydroxypropylcellulose) (HPC)) was 104 % of control, the T/C [3] was 109 % of control and the T/C [4] was 109 % of control. For the same compound, the T/C [5] was 90 % of control, the T/C [12] was 120 % of control and the T/C [13] was 115 % of control. For the same compound, the T/C (dose: 400.0 mg/kg/injection, schedule: Q04DX003 (ip), vehicle: Klucel (hydroxypropylcellulose) (HPC)) was 90 % of control.

In the case of `N#CC1=C(N)CCCC1`, the T/C [10] is reported as 97 % of control, the T/C (dose: 100.0 mg/kg/injection, schedule: Q01DX009 (ip), vehicle: saline) is reported as 99 % of control and the T/C (dose: 200.0 mg/kg/injection, schedule: Q01DX009 (ip), vehicle: saline) is reported as 102 % of control.

`CN(C)c1ccc(/C=C\c2ccnc3ccc(-c4ccccc4)cc23)cc1` was tested, and the T/C [1] was 94 % of control, the T/C [2] was 94 % of control and the T/C [6] was 94 % of control.

`CCCCCCCCCCCCCC(C)NCc1ccccc1` (centres undefined) was tested, and the T/C (dose: 3.13 mg/kg/injection, schedule: Q01DX009 (ip), vehicle: saline with Tween-80) was 95 % of control, the T/C (dose: 6.25 mg/kg/injection, schedule: Q01DX009 (ip), vehicle: saline with Tween-80) was 100 % of control and the T/C [14] was 100 % of control.

For `CN1CCC(=C(C#N)C#N)CC1`, the T/C (dose: 25.0 mg/kg/injection, schedule: Q04DX003 (ip), vehicle: saline) was 95 % of control, the T/C [7] was 100 % of control and the T/C [8] was 100 % of control.
